Assay results from patent publication US20150099774A1, “Pyrido [3,4-C] [1,9] phenanthroline and 11, 12 dihydropyrido [3,4-C] [1,9] phenanthroline derivatives and the use thereof, particularly for treating cancer” (CHRISTIAN-ALBRECHTS-UNIVERSITAET ZU KIEL, priority 2012, published 2015).

Tests used:
Type in all cases: cell-based, human
HL-60(TB) = assay: NCI in vitro anti-tumor screening, 1 μM, SRB; conditions: c = 1 μM; HL-60(TB) (Leukemia); two days
MOLT-4 = assay: NCI in vitro anti-tumor screening, 1 μM, SRB; conditions: c = 1 μM; MOLT-4 (Leukemia); two days
RPMI-8226 = assay: NCI in vitro anti-tumor screening, 1 μM, SRB; conditions: c = 1 μM; RPMI-8226 (Leukemia); two days
K-562 = assay: NCI in vitro anti-tumor screening, 1 μM, SRB; conditions: c = 1 μM; K-562 (Leukemia); two days
LOX IMVI = assay: NCI in vitro anti-tumor screening, 1 μM, SRB; conditions: c = 1 μM; LOX IMVI (Melanoma); two days
MALME-3M = assay: NCI in vitro anti-tumor screening, 1 μM, SRB; conditions: c = 1 μM; MALME-3M (Melanoma); two days
M14 = assay: NCI in vitro anti-tumor screening, 1 μM, SRB; conditions: c = 1 μM; M14 (Melanoma); two days
MDA-MB-435 = assay: NCI in vitro anti-tumor screening, 1 μM, SRB; conditions: c = 1 μM; MDA-MB-435 (Melanoma); two days
SK-MEL-2 = assay: NCI in vitro anti-tumor screening, 1 μM, SRB; conditions: c = 1 μM; SK-MEL-2 (Melanoma); two days
SK-MEL-28 = assay: NCI in vitro anti-tumor screening, 1 μM, SRB; conditions: c = 1 μM; SK-MEL-28 (Melanoma); two days
SK-MEL-5 = assay: NCI in vitro anti-tumor screening, 1 μM, SRB; conditions: c = 1 μM; SK-MEL-5 (Melanoma); two days
UACC-257 = assay: NCI in vitro anti-tumor screening, 1 μM, SRB; conditions: c = 1 μM; UACC-257 (Melanoma); two days
UACC-62 = assay: NCI in vitro anti-tumor screening, 1 μM, SRB; conditions: c = 1 μM; UACC-62 (Melanoma); two days
MCF7 = assay: NCI in vitro anti-tumor screening, 1 μM, SRB; conditions: c = 1 μM; MCF7 (Breast cancer); two days
MDA-MB-231/ATCC = assay: NCI in vitro anti-tumor screening, 1 μM, SRB; conditions: c = 1 μM; MDA-MB-231/ATCC (Breast cancer); two days
BT-549 = assay: NCI in vitro anti-tumor screening, 1 μM, SRB; conditions: c = 1 μM; BT-549 (Breast cancer); two days
T-47D = assay: NCI in vitro anti-tumor screening, 1 μM, SRB; conditions: c = 1 μM; T-47D (Breast cancer); two days
MDA-MB-468 = assay: NCI in vitro anti-tumor screening, 1 μM, SRB; conditions: c = 1 μM; MDA-MB-468 (Breast cancer); two days
Leukemia cell lines = assay: NCI in vitro anti-tumor screening, 1 μM, mean of leukemia lines; conditions: c = 1 μM
Melanoma cell lines = assay: NCI in vitro anti-tumor screening, 1 μM, mean of melanoma lines; conditions: c = 1 μM
Breast cancer cell lines = assay: NCI in vitro anti-tumor screening, 1 μM, mean of breast cancer lines; conditions: c = 1 μM
60 tumor cell lines [1] = assay: NCI in vitro anti-tumor screening, 1 μM, all 60 cell lines; conditions: c = 1 μM; for growth inhibitory effect (in words): leukemia, melanoma, breast cancer lines of Tables I and II
CCRF-CEM = assay: NCI in vitro anti-tumor screening, 1 μM, SRB; conditions: c = 1 μM; CCRF-CEM (Leukemia); two days
SR = assay: NCI in vitro anti-tumor screening, 1 μM, SRB; conditions: c = 1 μM; SR (Leukemia); two days
HS-578T = assay: NCI in vitro anti-tumor screening, 1 μM, SRB; conditions: c = 1 μM; HS-578T (Breast cancer); two days
60 tumor cell lines [2] = assay: NCI 5 dose assay, dose-response (GI50, MG_MID); conditions: for GI50: Homo sapiens, calculated from mean graph midpoint; for GI50 / MG_MID (mean-graph midpoint, mean of the logarithms GI50 values): all 60 cell lines; for MG_MID (mean-graph midpoint, mean of the logarithms GI50 values): 5 concentrations
From the text: It has been shown in the experiments carried out according to the present invention that the above-described phenanthroline derivates have antitumoral properties. Due to their structural similarity it is to be assumed that they have also antimicrobial, antifungal, antiviral and anti-inflammatory properties like the benzo[c]phenanthridines. For investigating the pharmacological properties the compounds of general formulas I and II, as well as compounds of the substance class III were investigated in an “in vitro anti-tumor screening” of the National Cancer Institute (NCI), Bethesda, Md., USA. 60 different human pathogenic tumor cell lines were tested, which originate from nine cancer types (leukemia, non-small cell lung carcinoma, colon cancer, CNS cancer, melanoma, ovarian cancer, renal cancer, prostate cancer, breast cancer). For determining the efficacy, the tumor cells are exposed to the compounds for two days and thereafter the growth inhibition is indirectly determined through the determination of the protein biomass with sulforhodamine B (SRB). Untreated cultures serve as reference.
Furthermore, it can be seen from tables I and II that the here tested phenanthrolin derivatives according to the present invention have selectivities for certain tumor types. The most marked growth inhibitory effect is for tumor cells of leukemia. Furthermore, a degree of selectivity for tumor cells of melanoma and mamma carcinoma (breast cancer) can be seen. […] The GI50 (growth inhibition 50%) describes here the concentration of the test substance required for inhibiting cell growth by 50%. […] Develop. Res., 34, (1995) 91-109,]
Exemplary for 6-amino-11-(3-bromophenyl)-11,12-dihydropyrido[3,4-c][1,9] phenanthrol are the dose-response curves shown in FIGS. 1 to 9. The nine different Figures include the various types of cancer. The percentage of growth, depending on the concentration of the compound is plotted (as log10 of the molar concentrations). The individual curves for each type of cancer are different cell lines of this type of cancer, which appear as legends in their usual abbreviations. Horizontal lines in the Figures denote percent growth +100, +50, 0, −50, −100. 100% growth means e.g. no difference to growth after two days without added substance.

## Nc1nc2c(c3ccncc13)C(c1ccc(Br)cc1)Cc1ccncc1-2 (centres unmarked)
HL-60(TB)
  Percentage cell growth: 70.3%
MOLT-4
  Percentage cell growth: 75.3%
RPMI-8226
  Percentage cell growth: 64.7%
K-562
  Percentage cell growth: 84.9%
LOX IMVI
  Percentage cell growth: 95.7%
MALME-3M
  Percentage cell growth: 98.2%
M14
  Percentage cell growth: 93.4%
MDA-MB-435
  Percentage cell growth: 107%
SK-MEL-2
  Percentage cell growth: 94.1%
SK-MEL-28
  Percentage cell growth: 112.5%
SK-MEL-5
  Percentage cell growth: 86.2%
UACC-257
  Percentage cell growth: 107.8%
UACC-62
  Percentage cell growth: 81.7%
MCF7
  Percentage cell growth: 83.4%
MDA-MB-231/ATCC
  Percentage cell growth: 80.6%
BT-549
  Percentage cell growth: 67.8%
T-47D
  Percentage cell growth: 84.6%
MDA-MB-468
  Percentage cell growth: 87.6%
Leukemia cell lines
  Percentage cell growth, Arithmetic mean: 73.8%
Melanoma cell lines
  Percentage cell growth, Arithmetic mean: 97.4%
Breast cancer cell lines
  Percentage cell growth, Arithmetic mean: 80.8%
60 tumor cell lines [1]
  Percentage cell growth, Arithmetic mean of all 60 cell lines: 90.5%

## COc1cccc(-c2cc3ccncc3c3nc(N)c4cnccc4c23)c1OC
CCRF-CEM
  Percentage cell growth: 74.9%
HL-60(TB)
  Percentage cell growth: 118.7%
MOLT-4
  Percentage cell growth: 90.1%
RPMI-8226
  Percentage cell growth: 96.8%
SR
  Percentage cell growth: 83.5%
K-562
  Percentage cell growth: 88.8%
LOX IMVI
  Percentage cell growth: 89.3%
MALME-3M
  Percentage cell growth: 123.8%
M14
  Percentage cell growth: 94.8%
SK-MEL-2
  Percentage cell growth: 117.3%
SK-MEL-28
  Percentage cell growth: 119.5%
SK-MEL-5
  Percentage cell growth: 86.3%
UACC-257
  Percentage cell growth: 126.3%
UACC-62
  Percentage cell growth: 99.1%
MCF7
  Percentage cell growth: 89.9%
MDA-MB-231/ATCC
  Percentage cell growth: 90.8%
HS-578T
  Percentage cell growth: 90.5%
BT-549
  Percentage cell growth: 95.0%
T-47D
  Percentage cell growth: 97.4%
MDA-MB-468
  Percentage cell growth: 81.5%
Leukemia cell lines
  Percentage cell growth, Arithmetic mean: 92.1%
Melanoma cell lines
  Percentage cell growth, Arithmetic mean: 95.2%
Breast cancer cell lines
  Percentage cell growth, Arithmetic mean: 90.9%
60 tumor cell lines [1]
  Percentage cell growth, Arithmetic mean of all 60 cell lines: 98.0%
  growth inhibitory effect (in words): disadvantageous

## COc1cc(-c2cc3ccncc3c3nc(N)c4cnccc4c23)cc(OC)c1OC
CCRF-CEM
  Percentage cell growth: 7.2%
HL-60(TB)
  Percentage cell growth: −0.9%
MOLT-4
  Percentage cell growth: −8.9%
RPMI-8226
  Percentage cell growth: 33.5%
SR
  Percentage cell growth: 13.1%
K-562
  Percentage cell growth: 29.9%
LOX IMVI
  Percentage cell growth: −30.4%
MALME-3M
  Percentage cell growth: 35.5%
M14
  Percentage cell growth: 9.5%
SK-MEL-2
  Percentage cell growth: 65.3%
SK-MEL-28
  Percentage cell growth: 41.5%
SK-MEL-5
  Percentage cell growth: 2.2%
UACC-257
  Percentage cell growth: 30.9%
MCF7
  Percentage cell growth: 22.8%
HS-578T
  Percentage cell growth: −2.5%
BT-549
  Percentage cell growth: 8.31%
T-47D
  Percentage cell growth: 36%
MDA-MB-468
  Percentage cell growth: −23.6%
Leukemia cell lines
  Percentage cell growth, Arithmetic mean: 12.3%
Melanoma cell lines
  Percentage cell growth, Arithmetic mean: 22.1%
Breast cancer cell lines
  Percentage cell growth, Arithmetic mean: 8.2%
60 tumor cell lines [1]
  Percentage cell growth, Arithmetic mean of all 60 cell lines: 16.8%
  growth inhibitory effect (in words): best results

## Nc1nc2c3cnccc3cc(-c3ccco3)c2c2ccncc12
CCRF-CEM
  Percentage cell growth: 12.4%
HL-60(TB)
  Percentage cell growth: 13.9%
MOLT-4
  Percentage cell growth: −0.9%
RPMI-8226
  Percentage cell growth: 62.7%
SR
  Percentage cell growth: 7.8%
K-562
  Percentage cell growth: 51.6%
LOX IMVI
  Percentage cell growth: 2.3%
MALME-3M
  Percentage cell growth: 59.7%
M14
  Percentage cell growth: 37.0%
SK-MEL-2
  Percentage cell growth: 91.8%
SK-MEL-28
  Percentage cell growth: 42.4%
SK-MEL-5
  Percentage cell growth: 20.0%
UACC-257
  Percentage cell growth: 69.8%
UACC-62
  Percentage cell growth: 41.0%
MCF7
  Percentage cell growth: 25.0%
MDA-MB-231/ATCC
  Percentage cell growth: 74.9%
BT-549
  Percentage cell growth: 16.2%
T-47D
  Percentage cell growth: 48.4%
MDA-MB-468
  Percentage cell growth: 35.6%
Leukemia cell lines
  Percentage cell growth, Arithmetic mean: 24.6%
Melanoma cell lines
  Percentage cell growth, Arithmetic mean: 45.5%
Breast cancer cell lines
  Percentage cell growth, Arithmetic mean: 40.0%
60 tumor cell lines [1]
  Percentage cell growth, Arithmetic mean of all 60 cell lines: 39.1%
  growth inhibitory effect (in words): good cytotoxic effects

## COc1cc2c(ccc3c4cc(OC)c(OC)cc4c[n+](C)c23)cc1O [Fagaronine, reference compound]
60 tumor cell lines [2]
  GI50: 9.48 µM
  MG_MID (mean-graph midpoint, mean of the logarithms GI50 values): −5.00

## Nc1cc2c(c3cnccc13)NCc1cnccc1-2 [P4, 6-amino-11,12-dihydropyrido[3,4-c][1,9]phenanthroline]
60 tumor cell lines [2]
  GI50: 8.13 µM
  MG_MID (mean-graph midpoint, mean of the logarithms GI50 values): −5.09

## Nc1cc2c(c3cnccc13)N(c1cccc(Br)c1)Cc1cnccc1-2 [P5, 6-amino-11-(3-bromophenyl)-11,12-dihydro-pyrido-[3,4-c][1,9]phenanthroline]
60 tumor cell lines [2]
  GI50: 2.69 µM
  MG_MID (mean-graph midpoint, mean of the logarithms GI50 values): −5.57
60 tumor cell lines [2]; nine cancer types, 5 dose assay
  percent growth versus concentration (dose-response curves, FIGS. 1 to 9): with increasing concentrations of the substance, the percent growth decreases

## O=C1CC2=C(c3cnccc31)N(c1cccc(Br)c1)Cc1cnccc12 [P5-O, 11-(3-bromophenyl)-6-oxo-5,6,11,12-tetrahydropyrido[3,4-c][1,9]phenanthroline]
60 tumor cell lines [2]
  GI50: 8.51 µM
  MG_MID (mean-graph midpoint, mean of the logarithms GI50 values): −5.07

## Nc1cc2c(c3cnccc13)N(c1cccc(Cl)c1)Cc1cnccc1-2 [P16, 6-amino-11-(3-chlorophenyl)-11,12 dihydropyrido-[3,4-c][1,9]phenanthroline]
60 tumor cell lines [2]
  GI50: 3.8 µM
  MG_MID (mean-graph midpoint, mean of the logarithms GI50 values): −5.42

## Nc1cc2c(c3cnccc13)N(c1ccc(Cl)c(Cl)c1)Cc1cnccc1-2 [P26, 6-amino-11-(3,4-di-chlorophenyl)-11,12-dihydropyrido-[3,4-c][1,9]phenanthroline]
60 tumor cell lines [2]
  GI50: 6.02 µM
  MG_MID (mean-graph midpoint, mean of the logarithms GI50 values): −5.22
